Where two headings read alike, the source gives them in different places.
Key:
[1] = test system: normal and G6PD-deficient RBCs; assay: eryptosis assay (annexin-V binding, ROS, forward scatter); format: cell-based, human; conditions: 48 h incubation
Procedure: In vitro evaluation of eryptosis as a marker for induced hemolytic toxicity was performed using de-identified human blood samples obtained from the Clinical Trial Center at WRAIR, using established methods[55],[81],[82]. Fresh Li-heparin-anticoagulated blood samples was centrifuged and the platelet and leukocyte-containing supernatant was removed. […] Flow cytometry was employed to estimate stimulators of eryptosis: phosphatidylserine exposure at the cell surface from annexin-V-binding, reactive oxygen species (ROS) formation from 2′,7′-dichlorodihydrofluorescein diacetate (DCFDA) dependent fluorescence, and cell volume from forward scatter. […]
After incubation under the respective experimental condition, cell suspension was washed in Ringer solution containing CaCl2 and then stained with Annexin-V-FITC at 37 °C for 15 min under protection from light. The annexin-V-abundance at the erythrocyte surface was subsequently determined on a FACS Calibur. Annexin-V-binding was measured at an excitation wavelength of 488 nm and an emission wavelength of 530 nm. […]
Oxidative stress was determined utilizing DCFDA. […] The DCFDA-loaded erythrocytes were resuspended in Ringer solution and ROS-dependent fluorescence intensity was measured at an excitation wavelength of 488 nm and an emission wavelength of 530 nm on a FACS Calibur. Subsequently, the geomean of the DCFDA dependent fluorescence was determined. […]

[2] = maximum tolerated dose (MTD) study, single oral dose; format: in vivo, Sprague Dawley rats; conditions: oral gavage, male and female rats
Procedure: In vivo toxicology and TK studies in rats were performed at SRI International, using the well-established methods[83]–[85]. Rats were housed in microisolator cages with hardwood chip bedding (Sani-Chips; Envigo Teklad) and maintained on a 12 h light/dark cycle. Environmental conditions were controlled at 20–26 °C (68–79 °F) with 30–70% relative humidity. […] Male and female Sprague Dawley outbred rats were randomly assigned to treatment and control groups using a simple randomization procedure to ensure a balanced distribution of baseline weights across all cohorts. […] For TK studies, blood was collected from animals at 6 time points post dose on Day 1 (0.5, 1, 2, 4, 8, and 24 h) and on Day 7 (0.5, 2, 8, 24, 48, and 96 h). Drug levels were determined in collected plasma samples using bioanalytical method developed at SRI. The plasma drug level data were analyzed using Phoenix WinNonlin (version 8.3) software to perform noncompartmental data analysis.

blood-stage P. yoelii = assay: 4-day suppression murine model, oral; format: in vivo, P. yoelii in CF1 mice
Description: Animals were housed at the VAPORHCS in Thoren Maxi-Miser microisolator cages (78 sq. in. floor space) with a maximum density of five females or four males per cage. Cages were maintained on a 12-h light/dark cycle and provided with autoclaved nesting materials (nestlets) for environmental enrichment. All mice had ad libitum access to food and water. Four- to five-week-old female and male outbred CF1 mice (Charles River Laboratories, Raleigh, NC, USA) were randomly assigned to treatment and control groups using a simple randomization procedure (e.g., computer-generated random numbers) to ensure balanced distribution of baseline body weights and starting parasitemia levels across all cohorts. Groups of four mice (n = 4, mean body weight of each group was ~30 g) were infected intravenously with 3.5 × 10^4 P. yoelii (Kenya strain, MRA-428) from a donor animal. Drug administration commenced the day after the animals were inoculated (Day 1). The test drug or the drug combination was dissolved in PEG-400 and administered by oral gavage once daily for 4 successive days in the 4-day suppression model, but only once on Day 1 in the single-dose cure model. Blood was collected via the tail vein with the aid of a syringe needle on Day 5 and then at weekly intervals through Day 28. Blood films were Giemsa-stained and examined microscopically to determine the level of parasitemia. All mice were observed daily to assess clinical signs. Animals with observable parasitemia following the experiments were euthanized; animals cleared of parasitemia from their bloodstream were observed daily with assessment of parasitemia performed weekly until Day 28, at which point, the animal(s) were scored as cured of the infection and then humanely euthanized. All treated mice with a negative smear on Day 28 were considered cured (100% protection). […]

[3] = test system: fresh P. falciparum isolates; assay: Ex vivo 72-h growth inhibition assay with SYBR Green detection; format: cell-based, Plasmodium falciparum
Procedure: Isolates were collected from patients with uncomplicated falciparum malaria in Bobo-Dioulasso, Burkina Faso and Tororo, Uganda. For parasite culture, parasitemia was identified with Giemsa-stained thin films using a light microscope. […] Isolates were stored at 4 °C and assayed within 24 h of collection. […] Study compounds were dissolved in DMSO as 10 mM stocks and stored at -20 °C. Drugs were serially diluted, including drug-free and parasite-free control wells, with concentrations optimized to capture full dose-response curves. Cultures were diluted with uninfected O^+ erythrocytes to achieve 0.2% parasitemia and 2% hematocrit. After 72 h, wells were resuspended, and culture from each well was transferred to 96-well plates containing SYBR Green lysis buffer and mixed. Plates were incubated for 1 h in the dark at room temperature, and fluorescence was measured with a plate reader (485 nm excitation and 530 nm emission).

[4] = as stated in response to reviewers

## O=c1c2ccc(Oc3ccc(OC(F)(F)F)cc3)cc2[nH]c2cc(Cl)cc(F)c12 [T111]
[1]
  eryptosis as marker of hemolytic toxicity: did not show the toxicity seen with TQ
[2]
  single dose MTD: greater than 400 mg/kg
blood-stage P. yoelii; [4]
  ED50: 0.27 mg/kg/day
  ED90: 0.39 mg/kg/day
blood-stage P. yoelii; female mice, oral
  ED50: 0.35 mg/kg/day
  ED90: 0.50 mg/kg/day
blood-stage P. yoelii; four consecutive days, oral
  curative dose: 10 mg/kg/day
blood-stage P. yoelii; male mice, oral
  ED50: 0.33 mg/kg/day
  ED90: 0.46 mg/kg/day
[3]; Burkina Faso isolates, n = 78, read-out: IC50 range
  IC50: 0.0013 to 0.49 nM
[3]; Burkina Faso isolates, n = 78, read-out: median IC50
  IC50: 0.062 nM
[3]; Uganda isolates, n = 81, read-out: IC50 range
  IC50: 0.0038 to 0.66 nM
[3]; Uganda isolates, n = 81, read-out: median IC50
  IC50: 0.049 nM
